Measurements reported in US8097422B2, “Kir channel modulators” (Salk Institute for Biological Studies, priority 2007, dated 2012).

Key:
Assay type in all cases: cell-based
[1] = molecular target: T1, GIRK2 Y349W mutant channel (Mus musculus, UniProt P48542, Y349W); test: whole-cell patch clamp, GIRK2 Y349W mutant channel; conditions: n=10
T1 construct: expressed in transfected cells; host or cells: HEK293T
Protocol: (§1) Point mutations were introduced by Quickchange site directed mutagenesis kit (Stratagene). The GIRK2 PIP mutant was generated by overlap-PCR method. […] Mutations were confirmed by automated DNA sequencing methods. […] Cells were plated in a 12 well dish, and were transiently transfected using Lipofectamine 2000 (Invitrogen). After 12-24 hrs, cells were re-plated to 12-mm glass coverslips coated with poly-D-[…] microgram/ml). […] The cells were co-transfected with 0.04 micrograms of eYFP cDNA to identify transfected cells. 0.8 micrograms of Muscarinic Receptor 2 (M2R) was also co-transfected for experiments with Carbachol. […] Whole-cell patch clamp recordings were performed 24-72 hrs after transfection. […] Alcohols, 5 μM Carbachol, and 1 mM BaCl2 (diluted in 20K solution) were applied from outside the cell with the rapid perfusion system (Warner Instruments). […] Current-voltage relationships also were obtained from the ramp protocol. This protocol was used to measure the inwardly rectifying currents at -100 mV and to ensure stability of recording by monitoring a reversal potential and inward rectification. […] Alcohol and Carbachol modulated currents were measured by averaging two consecutive current readings upon reaching steady state, and subtracting the averaged basal current before and after the application of modulator.

[2] = tested on: GIRK2 PIP S148T mutant channel; test: whole-cell patch clamp, GIRK2 PIP S148T mutant channel; conditions: GIRK2 PIP S148T compared with GIRK2 PIP L257W
Protocol: as §1

Kir3 channels [3] = molecular target: T2, Kir3 channels (Mus musculus, UniProt P48542); test: patch-clamp determination of ion transport activity: activation of Kir3 channels; conditions: read-out: Maximal activation of Kir3 channels relative to that of 100 mM EtOH
T2 construct: other: patch-clamp; other: 100 mM
T2 sequence (P48542 1-425): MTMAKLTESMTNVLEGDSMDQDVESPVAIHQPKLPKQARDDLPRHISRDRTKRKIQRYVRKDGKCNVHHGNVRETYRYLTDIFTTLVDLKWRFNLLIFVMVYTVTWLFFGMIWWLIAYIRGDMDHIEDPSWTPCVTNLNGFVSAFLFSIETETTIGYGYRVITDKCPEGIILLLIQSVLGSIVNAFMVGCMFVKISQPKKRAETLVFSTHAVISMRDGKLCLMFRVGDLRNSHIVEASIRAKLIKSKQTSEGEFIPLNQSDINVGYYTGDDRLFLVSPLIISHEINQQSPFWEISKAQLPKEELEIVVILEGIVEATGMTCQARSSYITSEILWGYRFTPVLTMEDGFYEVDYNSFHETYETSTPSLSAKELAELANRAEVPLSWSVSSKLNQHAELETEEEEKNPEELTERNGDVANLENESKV
Excerpt: (§2) It has been determined that inwardly rectifying potassium (Kir) channels are regulated directly by small molecule alcohol compounds. Three-dimensional crystallographic analysis of Kir channels has elucidated atomic details of binding pocket interactions with 2-methyl-2,4-pentanediol (MPD). MPD inhibits Kir2 channel activity and activates Kir3 channel activity. Amino acid substitutions in this hydrophobic pocket of the channel protein may alter the response to MPD. As determined by patch-clamp determinations of ion transport activity, a racemic mixture of 2-methyl-2,4-pentanediol, (±)MPD, activates Kir3 channels with an EC50 of >200 mM and inhibits Kir2 homotetramer channels with an IC50 of ˜200 mM. […] Bupivacaine inhibits Kir3.1/3.4 and Kir3.1/3.2 channels with an IC50 of ˜20-40 micromolar.
(§3) The following also were observed. Maximal activation of Kir3 channels by 100 mM (±)MPD is 280% that of 100 mM EtOH. Maximal activation of Kir3 channels by 100 mM R(−)2 methyl-2,4-pentanediol is 60% that of 100 mM (±)MPD. Maximal activation of Kir3 channels by 100 mM 3-methyl-1,3,5-pentanetriol is 70% that of 100 mM (±)MPD. Maximal activation of Kir3 channels by 100 mM 2,5-dimethyl-1,2,6-hexanetriol is 70% that of 100 mM (±)MPD. Maximal activation of Kir3 channels by 100 mM (±) 2,4-pentanediol is 50% that of 100 mM (±)MPD.

Kir3 channels [4] = test: as above; conditions: Kir3 activation or Kir2 inactivation
Excerpt: as §2, §3

[5] = molecular target: T3, Kir2 homotetramer channels (Mus musculus, UniProt P35561); test: patch-clamp determination of ion transport activity: inhibition of Kir2 channels (Kir2.1 expressed in HEK293 cells); conditions: as stated in the detailed description; read-out: IC50 for inhibition of Kir 2.1 channels
T3 construct: expressed in transfected cells; host or cells: HEK293
T3 sequence (P35561 whole entry): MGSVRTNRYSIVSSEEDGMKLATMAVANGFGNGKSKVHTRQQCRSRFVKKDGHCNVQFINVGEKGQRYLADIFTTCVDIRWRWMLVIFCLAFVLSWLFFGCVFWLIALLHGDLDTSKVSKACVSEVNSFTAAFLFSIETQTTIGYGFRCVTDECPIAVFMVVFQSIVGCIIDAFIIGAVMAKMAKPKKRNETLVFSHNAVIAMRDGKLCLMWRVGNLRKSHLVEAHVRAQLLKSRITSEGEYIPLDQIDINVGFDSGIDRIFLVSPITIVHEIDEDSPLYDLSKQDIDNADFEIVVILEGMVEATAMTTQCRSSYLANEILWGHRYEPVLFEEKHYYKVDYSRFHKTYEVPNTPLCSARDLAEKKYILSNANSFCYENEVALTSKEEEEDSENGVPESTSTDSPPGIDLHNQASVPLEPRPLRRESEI
Excerpt: as §2
The effect of MPD on Kir2 channel activity was analyzed further. […] The fractional current remaining is plotted as a function of MPD concentration. The response for each cell was fit with the Hill equation. The average IC50 and Hill coefficients are shown (n=6).

T1 sequence (P48542 whole entry Y349W): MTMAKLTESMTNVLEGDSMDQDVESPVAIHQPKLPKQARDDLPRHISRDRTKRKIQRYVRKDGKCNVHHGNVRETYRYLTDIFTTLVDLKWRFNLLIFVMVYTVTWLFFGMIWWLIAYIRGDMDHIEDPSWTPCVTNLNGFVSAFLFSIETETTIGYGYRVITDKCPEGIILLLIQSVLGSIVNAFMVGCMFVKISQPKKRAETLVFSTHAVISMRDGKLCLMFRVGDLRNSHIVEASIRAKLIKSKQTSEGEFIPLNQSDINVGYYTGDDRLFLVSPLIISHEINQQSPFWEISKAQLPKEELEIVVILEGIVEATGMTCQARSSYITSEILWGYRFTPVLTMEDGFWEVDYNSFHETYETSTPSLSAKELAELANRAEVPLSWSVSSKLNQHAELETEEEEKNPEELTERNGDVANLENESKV

1-PrOH activated current, GIRK2 Y349W, percentage change from basal current [1] | Emax at 100000 µM (Kir3 channels [3]) | IC50 [5] | Carbachol activated current, GIRK2 Y349W, percentage change from basal current ([1]; 5 μM Carbachol) | Compound | change in sensitivity to inhibition when Ser at the P-loop is mutated to Thr [2] | time course of inactivation or activation after application (Kir3 channels [4])
256±25% | – | – | – | 1-propanol [1-PrOH] | ~100 fold | –
– | 280% | ~100 mM | – | CC(O)CC(C)(C)O (racemic) [MPD, 2-methyl-2,4-pentanediol] | ~20 fold | within seconds
– | – | – | 56±5 | C[N+](C)(C)CCOC(N)=O [Carbachol] | – | –
